Results: patent EP3529257B1, “[…] METHODS OF USE THEREOF” (Sage Therapeutics, Inc., priority 2016, dated 2018)

How the values were obtained:
[1] = target: T1, GluN2B glutamate receptors (Homo sapiens, UniProt Q05586+Q13224); test: Whole-cell patch clamp of mammalian cells (Ionworks Barracuda), positive allosteric modulation (PAM) of NMDA receptor, 2B; assay type: cell-based; settings: for Emax / Avg Emax 2B (%): % activation of current elicited with EC20 L-glutamate and 30 µM glycine; for EC50: co-application with EC20 L-glutamate and 30 µM glycine, 8-point concentration-response
T1 construct: expressed in transfected cells; host or cells: mammalian cells (line not described for GluN2B)
Description: (§1) The measurements were perfomed using Ion Works Barracuda platform following this procedure: • Electrophysiological Procedures: • a) Intracellular solution (mM): 50 mM CsCl, 90 mM CsF, 2 mM MgCl2, 5 mM EGTA, 10 mM HEPES. Adjust to pH 7.2 with CsOH. • b) Extracellular solution, HB-PS (composition in mM): NaCl, 137; KCl, 1.0; CaCl2, 5; HEPES, 10; Glucose, 10; pH adjusted to 7.4 with NaOH (refrigerated until use). • c) Holding potential: -70 mV, potential during agonist/PAM application: -40 mV. • Recording procedure: • a) Extracellular buffer will be loaded into the PPC plate wells (11 µL per well). Cell suspension will be pipetted into the wells (9 µL per well) of the PPC planar electrode. • b) Whole-cell recording configuration will be established via patch perforation with membrane currents recorded by on-board patch clamp amplifiers. • c) Two recordings (scans) will be performed. First, during pre-application of test article alone (duration of pre-application - 5 min) and second, during test articles and agonist (EC20 L-glutamate and 30 µM glycine) co-application to detect positive modulatory effects of the test article.
(§2) Test Article Administration: The first pre-application will consist of the addition of 20 µL of 2X concentrated test article solution and, second, of 20 µL of 1X concentrated test article and agonist at 10 µL/s (2 second total application time).
(§3) PAM concentration-response data will be fitted to an equation of the form: % Activation = % L−glutamate EC20 + {(%MAX−%L−glutamateEC20)/[1+(([Test]/; EC50))^N]}, [formula] where [Test] will be the concentration of PAM (test article), EC50 will be the concentration of PAM producing half-maximal activation, N will be the Hill coefficient, % L-glutamate EC20 will be the percentage of the current Elicited with L-glutamate EC20, % MAX is the percentage of the current activated with the highest dose of PAM co-admitted with L-glutamate EC20 and % Activation will be the percentage of the current elicited with L-glutamate EC10-30 at each PAM concentration.
(§4) The maximal amplitude of the evoked currents are measured and defined as Peak Current Amplitude (PCA).

[2] = target: T2, GlunN1/GluN2A glutamate receptors (Homo sapiens, UniProt Q05586+Q12879); test: Whole-cell patch clamp of mammalian cells (Ionworks Barracuda), positive allosteric modulation (PAM) of NMDA receptor, 2A; assay type: cell-based; settings: for Emax: HEK293, HEK293 cells; for Emax / Avg Emax 2A (%): % activation of current elicited with EC20 L-glutamate and 30 µM glycine; for Avg Emax 2A (%) / EC50: HEK293 cells; for EC50: co-application with EC20 L-glutamate and 30 µM glycine, 8-point concentration-response
T2 construct: expressed in transfected cells
Description: as §1, §2, §3, §4

T1 sequence (Q13224 27-1484, other chains not shown): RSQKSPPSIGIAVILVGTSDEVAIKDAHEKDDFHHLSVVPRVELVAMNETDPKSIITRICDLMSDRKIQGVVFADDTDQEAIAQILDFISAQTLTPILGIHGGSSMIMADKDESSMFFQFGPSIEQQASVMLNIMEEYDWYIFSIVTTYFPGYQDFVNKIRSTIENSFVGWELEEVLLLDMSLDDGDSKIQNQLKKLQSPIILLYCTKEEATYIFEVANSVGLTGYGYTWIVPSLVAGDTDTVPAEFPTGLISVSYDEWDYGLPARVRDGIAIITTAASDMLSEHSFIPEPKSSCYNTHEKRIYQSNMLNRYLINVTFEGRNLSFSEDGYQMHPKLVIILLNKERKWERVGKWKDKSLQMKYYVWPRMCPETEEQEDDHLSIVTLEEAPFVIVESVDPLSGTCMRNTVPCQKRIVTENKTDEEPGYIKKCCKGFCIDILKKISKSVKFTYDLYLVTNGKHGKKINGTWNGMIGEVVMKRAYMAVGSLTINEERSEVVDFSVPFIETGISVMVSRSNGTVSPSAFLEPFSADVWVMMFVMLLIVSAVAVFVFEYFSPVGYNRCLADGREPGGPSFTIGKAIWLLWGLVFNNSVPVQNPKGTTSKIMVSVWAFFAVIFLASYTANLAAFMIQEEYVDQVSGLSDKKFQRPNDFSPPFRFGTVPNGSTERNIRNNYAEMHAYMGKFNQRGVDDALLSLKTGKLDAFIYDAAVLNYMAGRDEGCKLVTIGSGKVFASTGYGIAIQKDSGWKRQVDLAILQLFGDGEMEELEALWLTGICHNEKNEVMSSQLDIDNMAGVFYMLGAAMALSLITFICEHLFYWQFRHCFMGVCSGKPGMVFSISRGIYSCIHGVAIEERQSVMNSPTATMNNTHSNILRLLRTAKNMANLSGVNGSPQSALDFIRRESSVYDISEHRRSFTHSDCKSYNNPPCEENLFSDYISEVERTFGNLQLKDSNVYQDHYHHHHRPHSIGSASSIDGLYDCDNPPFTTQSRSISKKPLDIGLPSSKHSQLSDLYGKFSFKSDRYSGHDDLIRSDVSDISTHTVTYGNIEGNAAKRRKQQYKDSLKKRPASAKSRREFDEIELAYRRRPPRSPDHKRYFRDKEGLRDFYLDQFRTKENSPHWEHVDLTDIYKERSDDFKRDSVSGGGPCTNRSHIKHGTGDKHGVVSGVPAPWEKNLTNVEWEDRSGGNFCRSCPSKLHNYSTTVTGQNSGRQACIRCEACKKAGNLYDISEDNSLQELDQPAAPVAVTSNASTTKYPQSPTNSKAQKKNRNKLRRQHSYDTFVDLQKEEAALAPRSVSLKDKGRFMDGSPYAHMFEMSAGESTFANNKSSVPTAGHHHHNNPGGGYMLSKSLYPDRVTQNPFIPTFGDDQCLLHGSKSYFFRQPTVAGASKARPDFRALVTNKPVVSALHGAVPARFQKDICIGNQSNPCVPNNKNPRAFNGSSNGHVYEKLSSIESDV
T2 sequence (Q12879 23-1464, other chains not shown): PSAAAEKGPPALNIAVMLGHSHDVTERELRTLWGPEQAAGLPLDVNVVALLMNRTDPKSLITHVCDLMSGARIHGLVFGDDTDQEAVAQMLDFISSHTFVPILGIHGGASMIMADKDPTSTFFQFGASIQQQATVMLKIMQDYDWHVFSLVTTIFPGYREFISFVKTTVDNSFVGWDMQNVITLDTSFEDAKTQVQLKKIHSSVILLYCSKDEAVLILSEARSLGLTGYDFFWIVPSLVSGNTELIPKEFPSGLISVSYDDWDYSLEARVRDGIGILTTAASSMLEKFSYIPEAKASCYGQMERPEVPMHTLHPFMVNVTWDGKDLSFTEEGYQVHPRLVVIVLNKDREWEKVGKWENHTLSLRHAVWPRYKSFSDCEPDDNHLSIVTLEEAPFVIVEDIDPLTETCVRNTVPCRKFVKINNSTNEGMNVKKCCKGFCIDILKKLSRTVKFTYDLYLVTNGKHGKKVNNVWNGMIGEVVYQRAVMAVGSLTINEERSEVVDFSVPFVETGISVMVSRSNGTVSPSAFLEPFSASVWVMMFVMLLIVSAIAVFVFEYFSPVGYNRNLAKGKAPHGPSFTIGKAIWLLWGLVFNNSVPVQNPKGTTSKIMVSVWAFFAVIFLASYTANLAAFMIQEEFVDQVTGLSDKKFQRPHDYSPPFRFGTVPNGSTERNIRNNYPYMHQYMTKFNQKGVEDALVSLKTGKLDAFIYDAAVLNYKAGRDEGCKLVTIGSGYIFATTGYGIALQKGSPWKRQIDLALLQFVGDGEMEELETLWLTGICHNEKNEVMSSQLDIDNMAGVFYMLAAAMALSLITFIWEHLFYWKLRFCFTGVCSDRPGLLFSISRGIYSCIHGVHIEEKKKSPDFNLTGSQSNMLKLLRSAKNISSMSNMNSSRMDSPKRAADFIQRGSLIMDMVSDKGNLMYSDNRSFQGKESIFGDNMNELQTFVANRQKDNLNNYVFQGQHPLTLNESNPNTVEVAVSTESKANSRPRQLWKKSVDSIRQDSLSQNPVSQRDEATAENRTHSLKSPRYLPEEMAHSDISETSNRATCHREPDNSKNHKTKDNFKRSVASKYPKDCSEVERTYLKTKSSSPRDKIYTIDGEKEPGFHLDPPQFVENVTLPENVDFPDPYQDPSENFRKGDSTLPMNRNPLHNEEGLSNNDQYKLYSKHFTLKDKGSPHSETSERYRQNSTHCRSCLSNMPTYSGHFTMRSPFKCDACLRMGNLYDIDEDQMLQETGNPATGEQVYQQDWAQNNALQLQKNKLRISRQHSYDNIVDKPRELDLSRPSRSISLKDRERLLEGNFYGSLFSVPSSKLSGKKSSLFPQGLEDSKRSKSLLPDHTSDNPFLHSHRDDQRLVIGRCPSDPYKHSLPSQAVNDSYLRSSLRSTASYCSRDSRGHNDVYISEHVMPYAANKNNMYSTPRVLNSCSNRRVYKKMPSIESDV

SMILES | Emax [1] [%] | Emax [2] [%] | Avg Emax 2B (%) [1] [%] | EC50 [1] [nM] | Avg Emax 2A (%) [2] [%] | EC50 [2] [nM]
CCC1(O)CCC2(C)C(=CCC3C2CCC2(C)C(C(C)CCC(O)c4ccccc4F)CCC32)C1 (single isomer, unassigned) [Compound 7281] | 126 | 98.1 |  |  |  | 
CCC1(O)CCC2C(=CCC3C2CCC2(C)C(C(C)CCC4(O)CCOC4)CCC32)C1 (single isomer, unassigned) [Compound 8602] | 262 | 272 |  |  |  | 
CC(C)[C@@H](O)CC[C@@H](C)[C@H]1CC[C@H]2[C@@H]3CC=C4C[C@](O)(C(F)(F)F)CC[C@]4(C)[C@H]3CC[C@]12C [Compound 1-A] | 250 | 275 |  |  |  | 
CC(C)[C@H](O)CC[C@@H](C)[C@H]1CC[C@H]2[C@@H]3CC=C4C[C@](O)(C(F)(F)F)CC[C@]4(C)[C@H]3CC[C@]12C [Compound 1-B] | 285 | 262 |  |  |  | 
CC(C)[C@@H](O)CC[C@@H](C)[C@H]1CC[C@H]2[C@@H]3CC[C@H]4C[C@@](C)(O)CC[C@@H]4[C@H]3CC[C@]12C [Compound 1A75] |  |  | 308.0 | 440 | 457.2 | 671
CC(C)[C@H](O)CC[C@@H](C)[C@H]1CC[C@H]2[C@@H]3CC[C@H]4C[C@@](C)(O)CC[C@@H]4[C@H]3CC[C@]12C [Compound 1B75] |  |  | 233.1 | 183 | 278.8 | 165
C[C@H](O)CC[C@@H](C)[C@H]1CC[C@H]2[C@@H]3CC[C@H]4C[C@](O)(C(F)(F)F)CC[C@]4(C)[C@H]3CC[C@]12C [Compound 6] | 163 | 137 |  |  |  | 
C[C@H](CCC1(O)CCC(F)(F)CC1)[C@H]1CC[C@H]2[C@@H]3CC[C@H]4C[C@](O)(C(F)(F)F)CC[C@]4(C)[C@H]3CC[C@]12C [Compound 8] | 322 | 402 |  |  |  | 
C[C@H](CCC1(O)CCOC1)[C@H]1CC[C@H]2[C@@H]3CC=C4C[C@](O)(C(F)(F)F)CC[C@]4(C)[C@H]3CC[C@]12C (stereo partly shown) [Compound 10] | 362 | 632 |  |  |  | 
C[C@H](CCC1(O)CCOCC1)[C@H]1CC[C@H]2[C@@H]3CC[C@H]4C[C@](O)(C(F)(F)F)CC[C@]4(C)[C@H]3CC[C@]12C [Compound 11] |  |  | 157.4 | 104 | 151.2 | 117
C[C@H](CCC[C@@H](C)O)[C@H]1CC[C@H]2[C@@H]3CC[C@H]4C[C@](O)(C(F)(F)F)CC[C@]4(C)[C@H]3CC[C@]12C [Compound 112] |  |  | 150.8 | 478 | 92.6 | 480
C[C@H](CCC(O)(c1ccccc1)C(F)(F)F)[C@H]1CC[C@H]2[C@@H]3CC=C4C[C@@](C)(O)CC[C@]4(C)[C@H]3CC[C@]12C (stereo partly shown) [Compound 559] |  |  | 373.2 | 1560 | 204.3 | 1570
C[C@H](CCC(O)Cc1ccccc1)[C@H]1CC[C@H]2[C@@H]3CC=C4C[C@@](C)(O)CC[C@]4(C)[C@H]3CC[C@]12C (stereo partly shown) [Compound 660] |  |  | 281.1 | 517 | 195.2 | 701
C[C@H](O)CCC[C@@H](C)[C@H]1CC[C@H]2[C@@H]3CC[C@H]4C[C@](O)(C(F)(F)F)CC[C@]4(C)[C@H]3CC[C@]12C [Compound 2113] |  |  | 285.0 | 413 | 402.7 | 380
C[C@H](CC[C@H](O)C(C)(C)C)[C@H]1CC[C@H]2[C@@H]3CC[C@H]4C[C@](O)(C(F)(F)F)CC[C@]4(C)[C@H]3CC[C@]12C [Compound 2184] | 258 | 234 |  |  |  | 
C[C@H](CCC1(O)CCC(F)(F)CC1)[C@H]1CC[C@H]2[C@@H]3CC=C4C[C@](O)(C(F)(F)F)CC[C@]4(C)[C@H]3CC[C@]12C [Compound 2392] | 166 | 230 |  |  |  | 
C[C@H](CCC(O)C(C)(C)C)[C@H]1CC[C@H]2[C@@H]3CC=C4C[C@](O)(C(F)(F)F)CC[C@]4(C)[C@H]3CC[C@]12C (stereo partly shown) [Compound 2500] | 300 | 303 |  |  |  | 
C[C@H](CC[C@](C)(O)C(F)(F)F)[C@H]1CC[C@H]2[C@@H]3CC=C4C[C@](O)(C(F)(F)F)CC[C@]4(C)[C@H]3CC[C@]12C [Compound 3035] | 611 | 323 |  |  |  | 

SMILES | Emax [1] [%] | Emax [2] [%] | Avg Emax 2B (%) [1] [%] | EC50 [1] [nM] | Avg Emax 2A (%) [2] [%] | EC50 [2] [nM]
C[C@H](CC[C@@H](O)C(F)(F)F)[C@H]1CC[C@H]2[C@@H]3CC=C4C[C@](O)(C(F)(F)F)CC[C@]4(C)[C@H]3CC[C@]12C [Compound 3149] | 472 | 292 |  |  |  | 
C[C@H](CC[C@@H](O)C(C)(C)C)[C@H]1CC[C@H]2[C@@H]3CC=C4C[C@](O)(C(F)(F)F)CC[C@]4(C)[C@H]3CC[C@]12C [Compound 3382] | 461 | 309 |  |  |  | 
C[C@H](CC[C@]1(O)CCOC1)[C@H]1CC[C@H]2[C@@H]3CC=C4C[C@](O)(C(F)(F)F)CC[C@]4(C)[C@H]3CC[C@]12C [Compound 3496] | 369 | 319 |  |  |  | 
C[C@H](CC[C@H](O)C(C)(C)C)[C@H]1CC[C@H]2[C@@H]3CC=C4C[C@](O)(C(F)(F)F)CC[C@]4(C)[C@H]3CC[C@]12C [Compound 3507] | 241 | 166 |  |  |  | 
C[C@H](CC[C@H](O)C(C)(C)C)[C@H]1CC[C@H]2[C@@H]3CC[C@@H]4C[C@](O)(C(F)(F)F)CC[C@]4(C)[C@H]3CC[C@]12C [Compound 3634] | 379 | 221 |  |  |  | 
C[C@H](CC[C@@H](O)C(C)(C)C)[C@H]1CC[C@H]2[C@@H]3CC[C@@H]4C[C@](O)(C(F)(F)F)CC[C@]4(C)[C@H]3CC[C@]12C [Compound 3788] | 410 | 229 |  |  |  | 
C[C@H](CC[C@]1(O)CC[C@H](C)CC1)[C@H]1CC[C@H]2[C@@H]3CC[C@H]4C[C@](O)(C(F)(F)F)CC[C@]4(C)[C@H]3CC[C@]12C [Compound 3877] | 71.1 | 42.4 |  |  |  | 
C[C@H](CCC1(O)CCCCCC1)[C@H]1CC[C@H]2[C@@H]3CC[C@H]4C[C@](O)(C(F)(F)F)CC[C@]4(C)[C@H]3CC[C@]12C [Compound 3983] | 300 | 176 |  |  |  | 
C[C@H](CCCC1(O)CC1)[C@H]1CC[C@H]2[C@@H]3CC[C@H]4C[C@](O)(C(F)(F)F)CC[C@]4(C)[C@H]3CC[C@]12C [Compound 4115] | 195 | 186 |  |  |  | 
C[C@H](CCC1(O)CCC(C(C)(C)C)CC1)[C@H]1CC[C@H]2[C@@H]3CC[C@H]4C[C@](O)(C(F)(F)F)CC[C@]4(C)[C@H]3CC[C@]12C (stereo partly shown) [Compound 4360] | 14.6 | 38.1 |  | > 10000 |  | > 10000
C[C@H](CCC1(O)CCC(OC(F)F)CC1)[C@H]1CC[C@H]2[C@@H]3CC[C@H]4C[C@](O)(C(F)(F)F)CC[C@]4(C)[C@H]3CC[C@]12C (stereo partly shown) [Compound 5131] |  |  | 39.0 | > 10000 | 52.9 | 33.6
C[C@H](CCC1(O)CCC(C)(C)CC1)[C@H]1CC[C@H]2[C@@H]3CC[C@@H]4C[C@](O)(C(F)(F)F)CC[C@]4(C)[C@H]3C(=O)C[C@]12C [Compound 5294] |  |  | 13.9 | > 10000 | 32.4 | > 10000
CC[C@]1(O)CC[C@@]2(C)[C@@H](CC[C@@H]3[C@@H]2CC[C@]2(C)[C@@H]([C@H](C)CC[C@@H](O)c4ccccn4)CC[C@@H]32)C1 [Compound 7030] |  |  |  |  |  | > 10000
CC[C@]1(O)CC[C@@]2(C)[C@@H](CC[C@@H]3[C@@H]2CC[C@]2(C)[C@@H]([C@H](C)CC[C@H](O)c4ccccn4)CC[C@@H]32)C1 [Compound 7032] |  |  |  |  |  | > 10000
CC[C@]1(O)CC[C@@]2(C)C(=CC[C@H]3[C@@H]4CC[C@H]([C@H](C)CC[C@H](O)c5ccc(F)cc5)[C@@]4(C)CC[C@@H]32)C1 [Compound 7146] | 167 | 104 |  |  |  | 
CC[C@]1(O)CC[C@@]2(C)C(=CC[C@H]3[C@@H]4CC[C@H]([C@H](C)CC[C@@H](O)c5ccccc5F)[C@@]4(C)CC[C@@H]32)C1 [Compound 7282] | 290 | 208 |  |  |  | 
C[C@H](CC[C@@](C)(O)c1ccccc1)[C@H]1CC[C@H]2[C@@H]3CC=C4C[C@@](C)(O)CC[C@]4(C)[C@H]3CC[C@]12C [Compound 7467] | 8.8 | 20.5 |  |  |  | 
